Results reported in patent publication US20150051283A1, “COMPOSITION AND METHOD FOR INHIBITION OF PKNG FROM MYCOBACTERIUM TUBERCULOSIS” (priority 2013, published 2015).

Key:
PknGΔ74/TPR = PknGΔ74/TPR (Mycobacterium tuberculosis, UniProt P9WI73); assay type: biochemical
rabbit muscle GAPDH = target: T1, rabbit muscle GAPDH (Oryctolagus cuniculus, UniProt P46406); experiment: Reversibility of GAPDH inhibition by DTT (positive control); assay type: biochemical; details: OA-NO2-inhibited GAPDH
T1 construct: rabbit muscle GAPDH as model protein; from tissue; host or cells: rabbit muscle
Description: FIG. 11A: PknG was inhibited by incubation with OA-NO2 (50 μM) in 70 mM ammonium bicarbonate, pH 8.0 at 25° C. for 10 min, as previously. Kinase activity of PknG inhibited by OA-NO2 was measured (PknG+OA-NO2). Subsequently, nitroalkylated samples were treated with DTT (42 mM) or GSH (24 mM) for 15 min at 25° C. and kinase activity was re-measured (PknG+OA-NO2+RSH). Activity recovery was expressed as a ratio between [activity of PknG+OA-NO2+RSH]/[activity PknG+OA-NO2] where 1 means no activity recovery after thiol-containing agent treatment. GAPDH was used as a positive control: after DTT treatment 90% of the initial activity was recovered representing a 12 fold increase in the enzyme activity after the RSH treatment. […] Three independent experiments were performed FIG. 11B: MALDI-TOF mass spectrum of peptides generated by tryptic digestion of PknG. Upper panel: untreated PknG, middle panel: PknG exposed to OA-NO2 and lower panel: idem middle panel+42 mM DTT. In each panel the native or nitroalkylated form of the peptide with the sequence 122-154 that includes the Rbx-Cys 128 and 131, are shown. […]
We have previously reported that nitrated fatty acids are capable to inhibit GAPDH activity by modification of nucleophilic amino acid residues in a thiol-reversible manner. […] PknG control activity was measured in the presence of the thiol-containing reagents. […]

[1] = target: Xanthine oxidoreductase (XOR) (Homo sapiens, UniProt P47989); details: reference [15]; cited from earlier work
Chain of Xanthine oxidoreductase (XOR) (P47989 whole entry): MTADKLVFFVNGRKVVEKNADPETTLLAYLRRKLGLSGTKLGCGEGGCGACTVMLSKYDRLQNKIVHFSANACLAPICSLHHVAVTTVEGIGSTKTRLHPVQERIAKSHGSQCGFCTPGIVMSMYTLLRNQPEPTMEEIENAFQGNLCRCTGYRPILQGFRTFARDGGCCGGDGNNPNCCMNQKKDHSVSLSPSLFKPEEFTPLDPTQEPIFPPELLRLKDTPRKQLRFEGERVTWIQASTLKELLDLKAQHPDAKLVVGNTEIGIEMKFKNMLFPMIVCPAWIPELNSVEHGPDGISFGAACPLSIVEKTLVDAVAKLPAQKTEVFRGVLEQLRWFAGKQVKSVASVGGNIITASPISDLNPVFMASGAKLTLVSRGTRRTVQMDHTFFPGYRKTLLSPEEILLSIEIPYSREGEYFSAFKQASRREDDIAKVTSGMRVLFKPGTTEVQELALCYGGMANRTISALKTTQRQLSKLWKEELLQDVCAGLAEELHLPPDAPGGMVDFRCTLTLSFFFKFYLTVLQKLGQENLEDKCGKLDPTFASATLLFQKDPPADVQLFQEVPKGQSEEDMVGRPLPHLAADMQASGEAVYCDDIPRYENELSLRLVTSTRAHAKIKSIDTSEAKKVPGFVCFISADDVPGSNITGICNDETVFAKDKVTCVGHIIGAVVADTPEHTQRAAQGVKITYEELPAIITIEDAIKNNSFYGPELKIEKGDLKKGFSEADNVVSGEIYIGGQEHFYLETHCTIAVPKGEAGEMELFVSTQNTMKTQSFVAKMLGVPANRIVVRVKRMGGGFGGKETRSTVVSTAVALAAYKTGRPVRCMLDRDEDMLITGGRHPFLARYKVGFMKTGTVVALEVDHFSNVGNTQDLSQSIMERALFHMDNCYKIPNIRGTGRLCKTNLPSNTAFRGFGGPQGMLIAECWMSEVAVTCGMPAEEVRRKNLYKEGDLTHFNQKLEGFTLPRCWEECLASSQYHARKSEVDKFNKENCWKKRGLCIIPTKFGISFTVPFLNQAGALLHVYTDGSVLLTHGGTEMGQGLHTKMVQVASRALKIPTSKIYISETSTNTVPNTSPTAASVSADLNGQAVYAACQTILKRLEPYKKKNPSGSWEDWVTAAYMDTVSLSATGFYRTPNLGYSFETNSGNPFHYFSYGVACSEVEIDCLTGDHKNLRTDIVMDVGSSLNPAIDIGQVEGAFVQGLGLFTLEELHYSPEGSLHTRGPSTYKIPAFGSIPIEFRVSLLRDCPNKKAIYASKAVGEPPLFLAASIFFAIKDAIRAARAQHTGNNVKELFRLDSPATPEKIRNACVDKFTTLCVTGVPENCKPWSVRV

T1 sequence (P46406 whole entry): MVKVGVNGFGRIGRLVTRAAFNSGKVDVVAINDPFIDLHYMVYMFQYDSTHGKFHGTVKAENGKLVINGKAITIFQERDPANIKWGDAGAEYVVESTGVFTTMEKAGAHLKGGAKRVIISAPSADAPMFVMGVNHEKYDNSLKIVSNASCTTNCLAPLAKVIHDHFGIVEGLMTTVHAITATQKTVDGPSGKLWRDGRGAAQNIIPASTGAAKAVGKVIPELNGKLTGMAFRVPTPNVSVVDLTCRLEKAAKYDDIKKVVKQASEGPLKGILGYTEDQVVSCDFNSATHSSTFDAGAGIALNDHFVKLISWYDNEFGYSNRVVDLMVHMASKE
Chain of PknGΔ74/TPR (P9WI73 whole entry, looked up, stated change not applied): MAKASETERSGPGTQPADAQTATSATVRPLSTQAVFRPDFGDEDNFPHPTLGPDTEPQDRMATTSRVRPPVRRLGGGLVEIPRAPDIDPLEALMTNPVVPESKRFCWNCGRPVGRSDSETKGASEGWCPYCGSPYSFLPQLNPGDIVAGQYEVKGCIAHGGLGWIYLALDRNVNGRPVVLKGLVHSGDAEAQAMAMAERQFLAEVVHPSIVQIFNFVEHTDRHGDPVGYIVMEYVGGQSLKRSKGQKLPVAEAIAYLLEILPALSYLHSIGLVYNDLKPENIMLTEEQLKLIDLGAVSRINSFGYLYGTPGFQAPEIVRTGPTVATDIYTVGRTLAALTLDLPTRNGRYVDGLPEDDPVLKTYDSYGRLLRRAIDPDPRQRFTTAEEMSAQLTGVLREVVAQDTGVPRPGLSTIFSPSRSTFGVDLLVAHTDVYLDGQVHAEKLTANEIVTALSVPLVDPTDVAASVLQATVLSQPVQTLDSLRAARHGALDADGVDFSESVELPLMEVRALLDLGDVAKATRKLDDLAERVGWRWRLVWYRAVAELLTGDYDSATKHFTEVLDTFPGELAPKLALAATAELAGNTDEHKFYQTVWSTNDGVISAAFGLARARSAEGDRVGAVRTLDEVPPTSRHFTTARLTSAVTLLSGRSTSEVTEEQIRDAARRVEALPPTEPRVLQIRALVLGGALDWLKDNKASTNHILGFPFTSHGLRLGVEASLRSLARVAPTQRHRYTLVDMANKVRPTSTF

For “9- and 10-nitro-octadeca-9-cis-enoic acid [OA-NO2]”, the “enzyme inhibition of PknGΔ74/TPR” value (PknGΔ74/TPR) was “fully inhibited”, the “increase in GAPDH activity after RSH treatment” value (rabbit muscle GAPDH) was 12 fold and the “initial GAPDH activity recovered after DTT treatment” value (rabbit muscle GAPDH) was 90%. For the same substance, the “XOR inhibition, reversibility” value [1] was “not reversed by thiol reagents”.
